Like-named read-outs stand apart in the source and are kept apart here.
What was measured:
[1] = Polymorphic stability on storage at room temperature for 24 h (XRPD); assay type: physicochemical; details: for crystal form after storage at RT for 24 h: room temperature and pressure, 24 h (about a day), open bottle, XRPD
Method: The various crystalline forms are also analyzed by Thermal Gravimetric Analysis (TGA). […] In contrast to the above listed forms, TGA profiles of forms L, P, U, α, δ and σ show no significant weight loss. These polymorphic forms of nateglinide are free of bound solvents, i.e., less than about 2% LOD. Table II lists the solvents used for the preparation for nateglinide solvated forms, as well as LOD values based on TGA analysis.
Storage at room temperature and pressure may also cause a transition of one form to another.
X-Ray diffraction was performed on X-Ray powder diffractometer, Scintag variable goniometer, Cu-tube, solid state detector. Sample holder: A round standard aluminum sample holder with round zero background quartz plate.
The sample was put on the sample holder and immediately analyzed as is. Scanning parameters: Range: 2-40 deg 2θ, Continuos Scan, Rate: 3 deg./min.

[2] = Thermal stability / form transformation on heating or drying (XRPD); assay type: physicochemical; details: for form obtained upon drying / heating: heating under ambient or reduced pressure, generally about 40-80° C.; for form after heating at about 100° C.: 100° C. oil bath, 8.5 h; for form after heating at about 100° C. / form after heating at 120° C.: XRPD; for form after heating at 120° C.: 1 h, atmospheric pressure
Method: The various crystalline forms are related to each other in that drying of one form may result in a transformation to another form, namely nateglinide Forms A, B, D, E, F, G, H, I, J, K, L, M, N, Q, S, T, V, Z, α, β, δ, γ, ε, θ and Ω. The drying is carried out by heating a sample under ambient or reduced pressure. Generally, a preferred temperature is from about 40° C. to about 80° C., more preferably under reduced pressure. […] The term “stable” as used herein refers to a polymorphic change of less than about 5% by weight, more preferably less than about 2%, particularly for Form δ.
Sample of nateglinide form U (˜1 g) was introduced into a 6-gram vial and heated over 8.5 h in a 100° C. oil bath. The vial were extracted from the bath.
Sample of nateglinide form U (˜0.5 g) was heated to 120° C. for 1 h in an atmospheric pressure.
Sample of nateglinide form δ (˜0.5 g) was heated to 120° C. for 1 h in an atmospheric pressure.

[3] = demonstrated by DSC; cited from earlier work
[4] = Absorption of solvent vapors by nateglinide Form H; assay type: physicochemical; details: for Δ (overweight): room temperature, 4 d
Method: Nateglinide (3.50 g) was added to a polypropylene can and weighed. The can was introduced into a bigger polypropylene container containing a solvent, and stored at room temperature. The can was removed from the container and weighed (Wfinal). The can content was divided into 2 portions. One portion was dried at a temperature of 55° C. and a pressure of 20-30 mmHg to constant weight (±0.01 g).

[5] = Stability at about 40° C. and about 75% relative humidity; assay type: physicochemical; details: about 40° C., relative humidity about 75%
Method: Crystalline Form δ is stable at a temperature of about 40° C. and a relative humidity of about 75% for at least about 3 months.

[6] = cited from earlier work

CC(C)[C@H]1CC[C@H](C(=O)N[C@H](Cc2ccccc2)C(=O)O)CC1 [Form A, nateglinide]
crystal form after storage at RT for 24 h [1]: partially converts to Form B
crystal form after storage at RT for 24 h ([1]; listed as A): conversion to Form B
form obtained upon drying / heating [2]: convert to Form B
form obtained upon drying / heating ([2]; listed as Form a): Form S

CC(C)[C@H]1CC[C@H](C(=O)N[C@H](Cc2ccccc2)C(=O)O)CC1 [Form B, nateglinide]
thermal stability (conversion to another form upon heating) [2]: thermally stable
stability during grinding [3]: unstable and susceptible to change during grinding

CC(C)[C@H]1CC[C@H](C(=O)N[C@H](Cc2ccccc2)C(=O)O)CC1 [Form C, nateglinide]
form obtained upon drying / heating [2]: convert to Form B

CC(C)[C@H]1CC[C@H](C(=O)N[C@H](Cc2ccccc2)C(=O)O)CC1 [Form E, nateglinide]
form obtained upon drying / heating [2]: convert to Form B

CC(C)[C@H]1CC[C@H](C(=O)N[C@H](Cc2ccccc2)C(=O)O)CC1 [Form F, nateglinide]
form obtained upon drying / heating [2]: convert to a mixture of Form B and G

CC(C)[C@H]1CC[C@H](C(=O)N[C@H](Cc2ccccc2)C(=O)O)CC1 [Form G, nateglinide]
form obtained upon drying / heating [2]: convert to Form B

CC(C)[C@H]1CC[C@H](C(=O)N[C@H](Cc2ccccc2)C(=O)O)CC1 [Form H, nateglinide]
thermal stability (conversion to another form upon heating) [2]: thermally stable
Δ (overweight) ([4]; Acetone vapors, 3.50 g NTG): 0.08
Δ (overweight) ([4]; DCM vapors, 3.49 g NTG): 0.04
Δ (overweight) ([4]; EtOH vapors, 3.50 g NTG): 0.52
Δ (overweight) ([4]; MeOH vapors, 3.50 g NTG): 0.18
Δ (overweight) ([4]; Water vapors, 3.50 g NTG): 0.02
stability in the presence of solvent vapors ([4]; vapors of water and acetone): stable

CC(C)[C@H]1CC[C@H](C(=O)N[C@H](Cc2ccccc2)C(=O)O)CC1 [Form I, nateglinide]
crystal form after storage at RT for 24 h [1]: converts to Form L
crystal form after storage at RT for 24 h ([1]; listed as I): Form L

CC(C)[C@H]1CC[C@H](C(=O)N[C@H](Cc2ccccc2)C(=O)O)CC1 [Form J, nateglinide]
XRD pattern after storage at RT for overnight ([1]; room temperature, overnight): XRD pattern slightly
form obtained upon drying / heating [2]: convert to Form B

CC(C)[C@H]1CC[C@H](C(=O)N[C@H](Cc2ccccc2)C(=O)O)CC1 [Form L, nateglinide]
thermal stability (conversion to another form upon heating) [2]: thermally stable

CC(C)[C@H]1CC[C@H](C(=O)N[C@H](Cc2ccccc2)C(=O)O)CC1 [Form M, nateglinide]
form obtained upon drying / heating [2]: Form L

CC(C)[C@H]1CC[C@H](C(=O)N[C@H](Cc2ccccc2)C(=O)O)CC1 [Form N, nateglinide]
form obtained upon drying / heating [2]: Form L

CC(C)[C@H]1CC[C@H](C(=O)N[C@H](Cc2ccccc2)C(=O)O)CC1 [Form O, nateglinide]
thermal stability (conversion to another form upon heating) [2]: somewhat stable

CC(C)[C@H]1CC[C@H](C(=O)N[C@H](Cc2ccccc2)C(=O)O)CC1 [Form Q, nateglinide]
crystal form after storage at RT for 24 h [1]: converts to Form Y
crystal form after storage at RT for 24 h ([1]; listed as Q): Form Y, which contains
form obtained upon drying / heating [2]: convert to Form B

CC(C)[C@H]1CC[C@H](C(=O)N[C@H](Cc2ccccc2)C(=O)O)CC1 [Form T, nateglinide]
crystal form after storage at RT for 24 h [1]: converts to Form E
crystal form after storage at RT for 24 h ([1]; listed as T): Form E
form obtained upon drying / heating [2]: convert to a mixture of Form B and G

CC(C)[C@H]1CC[C@H](C(=O)N[C@H](Cc2ccccc2)C(=O)O)CC1 [Form U, nateglinide]
thermal stability (conversion to another form upon heating) [2]: thermally stable
form after heating at about 100° C. [2]: does not undergo a transition
form after heating at about 100° C. ([2]; listed as form U): Form U
form after heating at 120° C. [2]: Form U

CC(C)[C@H]1CC[C@H](C(=O)N[C@H](Cc2ccccc2)C(=O)O)CC1 [Form V, nateglinide]
form obtained upon drying / heating [2]: Form H

CC(C)[C@H]1CC[C@H](C(=O)N[C@H](Cc2ccccc2)C(=O)O)CC1 [Form Y, nateglinide]
thermal stability (conversion to another form upon heating) [2]: somewhat stable

CC(C)[C@H]1CC[C@H](C(=O)N[C@H](Cc2ccccc2)C(=O)O)CC1 [Form Z, nateglinide]
form obtained upon drying / heating [2]: convert to Form B

CC(C)[C@H]1CC[C@H](C(=O)N[C@H](Cc2ccccc2)C(=O)O)CC1 [Form Ω, nateglinide]
form after drying in a vacuum oven ([2]; 50° C., vacuum oven, overnight, XRD): mixture of Form omega and Form Z
form obtained upon drying / heating [2]: convert to Form B

CC(C)[C@H]1CC[C@H](C(=O)N[C@H](Cc2ccccc2)C(=O)O)CC1 [Form α, nateglinide]
thermal stability (conversion to another form upon heating) [2]: somewhat stable
form obtained upon drying / heating [2]: convert to Form B

CC(C)[C@H]1CC[C@H](C(=O)N[C@H](Cc2ccccc2)C(=O)O)CC1 [Form β, nateglinide]
form obtained upon drying / heating [2]: convert to Form B

CC(C)[C@H]1CC[C@H](C(=O)N[C@H](Cc2ccccc2)C(=O)O)CC1 [Form δ, nateglinide]
thermal stability (conversion to another form upon heating) [2]: somewhat stable
polymorph after drying in a stirred reactor ([2]; 60 mmHg vacuum, 60° C., 6 hours): remained delta form
stability when heated to 60° C. overnight ([2]; 60° C., overnight (at least about 8 hours)): stable
form after heating at 120° C. [2]: results in Form B
form after heating at 120° C. ([2]; listed as form δ): Form B
polymorphic form after drying in a fluidized bed drier ([2]; 4 hours at 60° C.): delta
form obtained upon drying / heating [2]: convert to Form B
time for which the crystalline form is stable [5]: at least 3 months

CC(C)[C@H]1CC[C@H](C(=O)N[C@H](Cc2ccccc2)C(=O)O)CC1 [Form ε, nateglinide]
form obtained upon drying / heating [2]: Form H

CC(C)[C@H]1CC[C@H](C(=O)N[C@H](Cc2ccccc2)C(=O)O)CC1 [Form θ, nateglinide]
form obtained upon drying / heating [2]: convert to Form B

CC(C)[C@H]1CC[C@H](C(=O)N[C@H](Cc2ccccc2)C(=O)O)CC1 [Form σ, nateglinide]
thermal stability (conversion to another form upon heating) [2]: thermally stable

CC(C)[C@H]1CC[C@H](C(=O)N[C@H](Cc2ccccc2)C(=O)O)CC1 [acetonitrile solvate of Form Epsilon, nateglinide]
form obtained upon drying / heating [2]: Form B

CC(C)[C@H]1CC[C@H](C(=O)N[C@H](Cc2ccccc2)C(=O)O)CC1 [nateglinide, (−)—N-(trans-4-isopropylcyclohexanecarbonyl)-D-Phenylalanine]
solubility ([6]; in acetonitrile): sparingly soluble
solubility ([6]; in chloroform): freely soluble
solubility ([6]; in ethanol): freely soluble
solubility ([6]; in ether): soluble
solubility ([6]; in methanol): freely soluble
solubility ([6]; in octanol): sparingly soluble
solubility ([6]; in water): practically insoluble

CC(C)[C@H]1CC[C@H](C(=O)N[C@H](Cc2ccccc2)C(=O)O)CC1 [nitromethane solvates of Form Epsilon, nateglinide]
form obtained upon drying / heating [2]: Forms H or P

From patent publication US20050075400A1, “Polymorphic forms of nateglinide” (priority 2002, published 2005)
